Laboratory results published in BindingDB's records for doi:10.7270/Q2N014XN (Srmlsc, 2007).

Each compound was assayed against T1, Diphosphomevalonate decarboxylase (Streptococcus pneumoniae serotype 2 (strain D39 / NCTC 7466), UniProt A0A0H2ZN59) (assay: S. pneumoniae DPM-DC inhibitor potency, dose response, biochemical, PK/LDH-coupled NADH fluorescence, hexokinase coupling counter-screen (AID 550)). Conditions: not given.
T1 sequence (A0A0H2ZN59 whole entry): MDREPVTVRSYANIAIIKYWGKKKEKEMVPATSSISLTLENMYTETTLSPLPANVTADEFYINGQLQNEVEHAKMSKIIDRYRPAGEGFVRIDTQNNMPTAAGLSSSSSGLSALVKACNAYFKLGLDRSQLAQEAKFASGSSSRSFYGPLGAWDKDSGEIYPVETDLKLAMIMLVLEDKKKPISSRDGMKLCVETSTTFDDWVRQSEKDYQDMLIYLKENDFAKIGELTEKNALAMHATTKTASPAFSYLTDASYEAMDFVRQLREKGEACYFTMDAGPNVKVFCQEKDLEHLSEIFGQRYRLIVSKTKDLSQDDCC

SMILES	IC50 [µM]
O=C(CSc1ncnc2c1cnn2-c1ccccc1)Nc1ccc2c(c1)OCO2 [MLS000041214]	> 10000
O=NC1=C(Cc2ccco2)CCC1 [(2E)-2-(2-furanylmethylidene)-1-cyclopentanone oxime]	> 10000
Cc1cccc(C(=O)Nc2cc(=O)n(C)c(=O)n2C)c1 [MLS000103605]	> 10000
COc1ccc(NC(=O)c2nnn(Cc3ccc(SC)cc3)c2N)c(OC)c1 [5-amino-N-(2,4-dimethoxyphenyl)-1-[(4-methylsulfanylphenyl)methyl]triazole-4-carboxamide]	28.5
COCCn1cc(C(=O)NCCCN2CCC(C)CC2)c2c3ccccc3n(C)c2c1=O [1-keto-2-(2-methoxyethyl)-9-methyl-N-[3-(4-methylpiperidino)propyl]-beta-carboline-4-carboxamide]	27.2
O=C(CCc1nc(-c2ccccc2F)no1)NCCN1CCc2ccccc2C1 [MLS000091170]	> 10000
CCn1cc(C(=O)NCc2ccco2)c(=O)c2cc(F)c(N3CCN(C(=O)c4ccco4)CC3)cc21 [1-ethyl-6-fluoranyl-7-[4-(furan-2-ylcarbonyl)piperazin-1-yl]-N-(furan-2-ylmethyl)-4-oxidanylidene-quinoline-3-carboxamide]	16.7
CCCCC(=O)Nc1ccc(C(N)=O)cc1 [4-(1-oxopentylamino)benzamide]	> 10000
COC(=O)c1cc(Cl)c(NS(=O)(=O)c2ccccc2)cc1OC [4-(benzenesulfonamido)-5-chloro-2-methoxy-benzoic acid methyl ester]	32.2
CN(C)C(=O)N1CCC(C(=O)NCc2cccs2)CC1 [1-N,1-N-dimethyl-4-N-(thiophen-2-ylmethyl)piperidine-1,4-dicarboxamide]	> 10000
CCC(=O)Nc1nnc(Sc2ccc(N(C)C)cc2)s1 [MLS000109846]	> 10000
CCCN1C(=O)C(NC(C)=O)c2cc(OC)ccc21 (stereo not given) [MLS000080624]	> 10000
COC(=O)c1cc(NCc2c(F)cccc2Cl)ccc1N1CCOCC1 [5-[(2-chloro-6-fluoro-benzyl)amino]-2-morpholino-benzoic acid methyl ester]	80.4
C/C=C/Cn1c(N(C)Cc2ccccc2)nc2c1c(=O)[nH]c(=O)n2C [8-[benzyl(methyl)amino]-7-[(E)-but-2-enyl]-3-methylpurine-2,6-dione]	> 10000
O=C(Nc1ccc2nc(-c3ccco3)c(-c3ccco3)nc2c1)N1CCCCCC1	46.5
Cc1ccc2nc(-c3ccc(SCC(=O)O)nc3)[nH]c2c1 [2-[[5-(6-methyl-1H-benzimidazol-2-yl)-2-pyridinyl]thio]acetic acid]	9.87
CCOc1ccc(-c2nnc(-c3ccncc3)o2)cc1 [2-(4-ethoxyphenyl)-5-pyridin-4-yl-1,3,4-oxadiazole]	52.9
CCc1cc2c(=O)c(-c3nc4ccccc4n3C)c(C)oc2c(CN2CCN(C)CC2)c1O	49.5
COCCN(Cc1cc2cc3c(cc2[nH]c1=O)OCO3)C(=O)c1cccs1 [N-(2-methoxyethyl)-N-[(6-oxidanylidene-5H-[1,3]dioxolo[4,5-g]quinolin-7-yl)methyl]thiophene-2-carboxamide]	37.6
CCOC(=O)CC(=O)CSc1ccc2nnc(-c3ccc(C)cc3)n2n1 [3-keto-4-[[3-(p-tolyl)-[1,2,4]triazolo[4,3-b]pyridazin-6-yl]thio]butyric acid ethyl ester]	287
C=CCNc1nc(N2CCCC2)nc2ccccc12 [MLS000066749]	66.6
COC(=O)C1=C(C)OC(=N)C(C#N)C1c1cc(OC)c(OCC(N)=O)cc1Cl (stereo not given) [6-Amino-4-(4-carbamoylmethoxy-2-chloro-5-methoxy-phenyl)-5-cyano-2-methyl-4H-pyran-3-carboxylic acid methyl ester]	> 10000

SMILES	IC50 [µM]
COC(=O)c1ccc(COc2ccc3c4c(c(=O)oc3c2)CCC4)o1 [5-[(4-keto-2,3-dihydro-1H-cyclopenta[c]chromen-7-yl)oxymethyl]furan-2-carboxylic acid methyl ester]	97.1
CC(=NCc1ccco1)c1c(C)[nH]n(-c2nc3ccccc3s2)c1=O [(4Z)-2-(1,3-benzothiazol-2-yl)-4-[1-(furan-2-ylmethylamino)ethylidene]-5-methyl-pyrazol-3-one]	> 10000
CC(C)(C)n1nnnc1C(c1cc2cc3c(cc2[nH]c1=O)OCO3)N1CCN(c2ccccc2)CC1 (stereo not given) [7-[(1-tert-butyl-1,2,3,4-tetrazol-5-yl)-(4-phenylpiperazin-1-yl)methyl]-5H-[1,3]dioxolo[4,5-g]quinolin-6-one]	57
COc1cc2c(cc1NC(=O)c1ccc3c(c1)OCO3)oc1ccccc12 [MLS000088875]	> 10000
CCC(=O)N(Cc1cc2cc(OC)ccc2[nH]c1=O)c1cc(C)ccc1C	88.5
O=C1CC(c2cccnc2)c2cc3c(cc2N1)OCO3 (stereo not given) [8-(3-pyridinyl)-7,8-dihydro-5H-[1,3]dioxolo[4,5-g]quinolin-6-one]	> 10000
Cc1cc(O)cc(C)n1 [2,6-dimethyl-1H-pyridin-4-one]	> 10000
O=C(COc1cnc2ccccc2n1)NCCC1=CCCCC1 [MLS000056304]	188
Nc1cc(N)cc(-c2nc3ccccc3[nH]2)c1 [SMR000008815]	79.1
CC(C)(C)CC(=O)Nc1nnc(-c2cccs2)s1 [3,3-Dimethyl-N-(5-thiophen-2-yl-[1,3,4]thiadiazol-2-yl)-butyramide]	> 10000
CCN(CC)CCCN(Cc1cc2cc3c(cc2nc1O)OCCO3)C(=O)Nc1ccccc1 [SMR000004152]	> 10000
CC(=O)Nc1cccc(NC(=O)CSc2nnnn2Cc2ccccc2)c1 [MLS000068005]	> 10000
COCCNC(=O)c1cnn2c(C(F)(F)F)cc(-c3ccc4c(c3)OCO4)nc12 [5-(1,3-benzodioxol-5-yl)-N-(2-methoxyethyl)-7-(trifluoromethyl)-3-pyrazolo[1,5-a]pyrimidinecarboxamide]	> 10000
CCn1c2c(c3cc(C(=O)O)ccc31)CCCC2=O [9-ethyl-1-oxo-2,3,4,9-tetrahydro-1H-carbazole-6-carboxylic acid]	78.5
O=C(c1ccccc1F)N(Cc1ccccc1)C1CCS(=O)(=O)C1 (stereo not given) [MLS000039394]	> 10000
Cc1cc(=O)oc2ccc(OCC(=O)N3CCC(C)CC3)cc12 [4-methyl-6-[2-(4-methyl-1-piperidinyl)-2-oxoethoxy]-1-benzopyran-2-one]	213
O=C(Nc1ccc2nn(-c3ccccc3)nc2c1)c1ccc(Br)o1 [5-bromanyl-N-(2-phenylbenzotriazol-5-yl)furan-2-carboxamide]	32.6
CCOC(=O)C(Cc1ccccc1)C(=O)Nc1nccs1 (stereo not given) [2-benzyl-3-keto-3-(thiazol-2-ylamino)propionic acid ethyl ester]	> 10000
Cc1ccc(C2C3CN(C(C)C)CCC3=C(C#N)C(=N)C2(C#N)C#N)cc1 (stereo not given) [SMR000034220]	39.6
COc1ccc(-c2ccc(-c3nnc(-c4ccncc4)o3)cc2)cc1 [2-[4-(4-methoxyphenyl)phenyl]-5-(4-pyridyl)-1,3,4-oxadiazole]	123
Cc1ccc(C2C3=C(CC(C)(C)CC3=O)N(CCN3CCOCC3)C3=C2C(=O)CC(C)(C)C3)cc1	> 10000

Same assay, conditions: inactive by the depositor's call

SMILES	IC50 [µM]
Cc1csc2ncc(C(=O)Nc3ccccc3Cl)c(=O)n12 [MLS000102002]	47.4
CCn1nc(-c2ccccc2)nc2c(=O)n(C)c(=O)nc1-2 [1-Ethyl-6-methyl-3-phenyl-1H-pyrimido[5,4-e][1,2,4]triazine-5,7-dione]	20
